# Data from ChEMBL document CHEMBL1201861, “Genomics of Drug Sensitity in Cancer screening data, Wellcome Trust Sanger Institute”.
# Columns and labels:
# Experiment in all cases: cells
# Conditions in all cases: Homo sapiens
# EOL1 = format: functional, cell-based;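 also: growth inhibition of EoL-1 cells, read out by a cell viability assay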
# Description: SANGER: Inhibition of human EoL-1-cell cell growth in a cell viability assay.
# MN-60 = format: functional, cell-based;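 also: growth inhibition of the MN-60 cell line, determined with a cell viability assay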
# Description: SANGER: Inhibition of human MN-60 cell growth in a cell viability assay.
# OS-RC-2 = format: functional, cell-based;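 also: growth inhibition of human OS-RC-2 cells, measured by a cell viability assay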
# Description: SANGER: Inhibition of human OS-RC-2 cell growth in a cell viability assay.
# SK-N-DZ = format: functional, cell-based;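 also: growth inhibition of the cancer cell line, read out through a viability assay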
# Description: SANGER: Inhibition of human SK-N-DZ cell growth in a cell viability assay.
# TK-10 = format: functional, cell-based;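 also: growth inhibition of TK-10 cells, read out in a cell viability assay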
# Description: SANGER: Inhibition of human TK10 cell growth in a cell viability assay.
# NOMO-1 = format: functional, cell-based;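 also: growth inhibition of human NOMO-1 cells measured by a cell viability assay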
# Description: SANGER: Inhibition of human NOMO-1 cell growth in a cell viability assay.
# A3-KAW = format: functional, cell-based;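 also: growth inhibition of human A3-KAW cells, read out with a cell viability assay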
# Description: SANGER: Inhibition of human A3-KAW cell growth in a cell viability assay.
# SK-N-FI = format: functional, cell-based;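 also: cell viability assay measuring growth inhibition of human SK-N-FI cells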
# Description: SANGER: Inhibition of human SK-N-FI cell growth in a cell viability assay.
# NCI-H209 = format: functional, cell-based;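 also: growth inhibition of human NCI-H209 cells, measured by a cell viability assay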
# Description: SANGER: Inhibition of human NCI-H209 cell growth in a cell viability assay.
# MS-1 = format: functional, cell-based
# Description: SANGER: Inhibition of human MS-1 cell growth in a cell viability assay.
# KARPAS-45 = format: functional, cell-based;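 also: inhibition of cell line growth, read out through a viability assay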
# Description: SANGER: Inhibition of human KARPAS-45 cell growth in a cell viability assay.
# DMS-79 = format: functional, cell-based;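 also: growth inhibition measured with a cell viability assay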
# Description: SANGER: Inhibition of human DMS-79 cell growth in a cell viability assay.
# KURAMOCHI = format: functional, cell-based;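 also: growth inhibition of KURAMOCHI cells, read out with a cell viability assay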
# Description: SANGER: Inhibition of human KURAMOCHI cell growth in a cell viability assay.
# ML-2 = format: functional, cell-based;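 also: growth inhibition of ML-2 cells, measured with a cell viability readout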
# Description: SANGER: Inhibition of human ML-2 cell growth in a cell viability assay.
# DMS-114 = format: functional, cell-based
# SF-539 = format: functional, cell-based;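 also: Read-out is a cell viability assay, with IC50 reflecting inhibition of cell growth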
# Description: SANGER: Inhibition of human SF539 cell growth in a cell viability assay.
# D283 Med = format: functional, cell-based
# Description: SANGER: Inhibition of human D-283MED cell growth in a cell viability assay.
# HuTu80 = format: functional, cell-based, HUTU-80;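 also: growth inhibition of HuTu80 human cells, determined with a cell viability readout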
# Description: SANGER: Inhibition of human HUTU-80 cell growth in a cell viability assay.
# KALS-1 = format: functional, cell-based;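 also: growth inhibition of KALS-1 cells, determined with a cell viability assay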
# Description: SANGER: Inhibition of human KALS-1 cell growth in a cell viability assay.
# ES5 = format: functional, cell-based;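 also: growth inhibition of human ES5 cells, read out by a cell viability assay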
# Description: SANGER: Inhibition of human ES5 cell growth in a cell viability assay.
# MSTO-211H = format: functional, cell-based
# Description: SANGER: Inhibition of human MSTO-211H cell growth in a cell viability assay.
# GOTO = format: functional, cell-based;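 also: growth inhibition of GOTO cells, read out by a cell viability assay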
# Description: SANGER: Inhibition of human GOTO cell growth in a cell viability assay.
# LB1047-RCC = format: functional, cell-based;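 also: inhibition of cell growth, determined with a cell viability assay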
# Description: SANGER: Inhibition of human LB1047-RCC cell growth in a cell viability assay.
# KNS-42 = format: functional, cell-based;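 also: growth inhibition of KNS-42 cells, read out with a cell viability assay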
# Description: SANGER: Inhibition of human KNS-42 cell growth in a cell viability assay.
# NCI-H1648 = format: functional, cell-based;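 also: cell viability assay measuring inhibition of NCI-H1648 cell growth, from the Sanger screening data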
# Description: SANGER: Inhibition of human NCI-H1648 cell growth in a cell viability assay.
# D-502MG = format: functional, cell-based
# Description: SANGER: Inhibition of human D-502MG cell growth in a cell viability assay.
# HCC1187 = format: functional, cell-based;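 also: growth inhibition of HCC1187 cells, read out with a cell viability assay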
# Description: SANGER: Inhibition of human HCC1187 cell growth in a cell viability assay.
# ONS-76 = format: functional, cell-based;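 also: growth inhibition of human ONS-76 cells, read out with a cell viability assay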
# Description: SANGER: Inhibition of human ONS-76 cell growth in a cell viability assay.
# SK-MEL-1 = format: functional, cell-based;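 also: growth inhibition of human SK-MEL-1 cells, read out by a cell viability assay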
# Description: SANGER: Inhibition of human SK-MEL-1 cell growth in a cell viability assay.
# CTB-1 = format: functional, cell-based
# Description: SANGER: Inhibition of human CTB-1 cell growth in a cell viability assay.
# DU-4475 = format: functional, cell-based
# Description: SANGER: Inhibition of human DU-4475 cell growth in a cell viability assay.
# SK-NEP-1 = format: functional, cell-based;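 also: growth inhibition of human SK-NEP-1 cells, read out by a cell viability assay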
# Description: SANGER: Inhibition of human SK-NEP-1 cell growth in a cell viability assay.
# C8166 = format: functional, cell-based;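 also: growth inhibition of human C8166 cells measured by a cell viability assay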
# Description: SANGER: Inhibition of human C8166 cell growth in a cell viability assay.
# JVM-2 = format: functional, cell-based;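 also: growth inhibition of JVM-2 cells determined by a cell viability assay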
# Description: SANGER: Inhibition of human JVM-2 cell growth in a cell viability assay.
# Calu-6 = format: functional, cell-based;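 also: growth of human Calu-6 cells, read out by a cell viability assay, IC50 marking inhibition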
# Description: SANGER: Inhibition of human Calu-6 cell growth in a cell viability assay.
# ES3 = format: functional, cell-based;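 also: growth inhibition of ES3 cells, read out with a cell viability assay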
# Description: SANGER: Inhibition of human ES3 cell growth in a cell viability assay.
# SCC-15 = format: functional, cell-based;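 also: growth inhibition of SCC-15 cells, read out with a cell viability assay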
# Description: SANGER: Inhibition of human SCC-15 cell growth in a cell viability assay.
# CTV-1 = format: functional, cell-based;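 also: growth inhibition of the cell line, read out with a cell viability assay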
# Description: SANGER: Inhibition of human CTV-1 cell growth in a cell viability assay.
# GCIY = format: functional, cell-based;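 also: growth inhibition of the human GCIY cell line, read out by a cell viability assay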
# Description: SANGER: Inhibition of human GCIY cell growth in a cell viability assay.
# JVM-3 = format: functional, cell-based;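 also: growth inhibition of human JVM-3 cells, read out with a cell viability assay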
# Description: SANGER: Inhibition of human JVM-3 cell growth in a cell viability assay.
# HCE-T = format: functional, cell-based;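 also: cell viability assay read-out, reporting inhibition of HCE-T cell growth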
# Description: SANGER: Inhibition of human HCE-T cell growth in a cell viability assay.
# KG-1 = format: functional, cell-based;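 also: growth inhibition of KG-1 cells, read out by a cell viability assay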
# Description: SANGER: Inhibition of human KG-1 cell growth in a cell viability assay.
# OMC-1 = format: functional, cell-based;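 also: growth inhibition of the OMC-1 cell line, measured by a cell viability assay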
# Description: SANGER: Inhibition of human OMC-1 cell growth in a cell viability assay.
# L-428 = format: functional, cell-based
# Description: SANGER: Inhibition of human L-428 cell growth in a cell viability assay.
# KGN = format: functional, cell-based;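 also: growth inhibition of KGN cells, read out with a cell viability assay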
# Description: SANGER: Inhibition of human KGN cell growth in a cell viability assay.
# LS-1034 = format: functional, cell-based
# Description: SANGER: Inhibition of human LS-1034 cell growth in a cell viability assay.
# KS-1 = format: functional, cell-based;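 also: growth inhibition of KS-1 cells, read out with a cell viability assay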
# Description: SANGER: Inhibition of human KS-1 cell growth in a cell viability assay.
# KLE = format: functional, cell-based;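 also: growth inhibition of human KLE cells, read out with a cell viability assay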
# Description: SANGER: Inhibition of human KLE cell growth in a cell viability assay.
# TE-11 = format: functional, cell-based;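 also: growth inhibition of human TE-11 cells, read out by a cell viability assay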
# Description: SANGER: Inhibition of human TE-11 cell growth in a cell viability assay.
# SNB-75 = format: functional, cell-based;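 also: cell viability assay measuring growth inhibition of human SNB-75 cells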
# Description: SANGER: Inhibition of human SNB75 cell growth in a cell viability assay.
# KP-N-YS = format: functional, cell-based;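 also: cell viability assay measuring inhibition of cell line growth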
# Description: SANGER: Inhibition of human KP-N-YS cell growth in a cell viability assay.
# NCI-H1155 = format: functional, cell-based;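 also: cell growth inhibition measured by a viability assay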
# Description: SANGER: Inhibition of human NCI-H1155 cell growth in a cell viability assay.
# HCE-4 = format: functional, cell-based;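 also: cell viability assay measuring inhibition of growth in the human HCE-4 cell line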
# Description: SANGER: Inhibition of human HCE-4 cell growth in a cell viability assay.
# A388 = format: functional, cell-based;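 also: growth inhibition of human A388 cells, read out with a cell viability assay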
# Description: SANGER: Inhibition of human A388 cell growth in a cell viability assay.
# RPMI-8866 = format: functional, cell-based
# Description: SANGER: Inhibition of human RPMI-8866 cell growth in a cell viability assay.
# KINGS-1 = format: functional, cell-based;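 also: cell viability assay measuring suppression of KINGS-1 cell growth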
# Description: SANGER: Inhibition of human KINGS-1 cell growth in a cell viability assay.
# SW 962 = format: functional, cell-based;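 also: growth inhibition of human SW962 cells, read out by a cell viability assay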
# Description: SANGER: Inhibition of human SW962 cell growth in a cell viability assay.
# NCI-H1355 = format: functional, cell-based;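 also: growth inhibition of human NCI-H1355 cells, read out by a cell viability assay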
# Description: SANGER: Inhibition of human NCI-H1355 cell growth in a cell viability assay.
# SJSA-1 = format: functional, cell-based;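 also: growth inhibition of human SJSA-1 cells, read out through a cell viability measurement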
# Description: SANGER: Inhibition of human SJSA-1 cell growth in a cell viability assay.
# EW-24 = format: functional, cell-based;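 also: human EW-24 cancer cell line, growth inhibition read out via a cell viability assay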
# Description: SANGER: Inhibition of human EW-24 cell growth in a cell viability assay.
# NCI-H510A = format: functional, cell-based
# Description: SANGER: Inhibition of human NCI-H510A cell growth in a cell viability assay.
# MHH-PREB-1 = format: functional, cell-based
# Description: SANGER: Inhibition of human MHH-PREB-1 cell growth in a cell viability assay.
# EC-GI-10 = format: functional, cell-based
# Description: SANGER: Inhibition of human EC-GI-10 cell growth in a cell viability assay.
# CAS-1 = format: functional, cell-based
# Description: SANGER: Inhibition of human CAS-1 cell growth in a cell viability assay.
# NTERA-2-cl-D1 = format: functional, cell-based
# Description: SANGER: Inhibition of human NTERA-S-cl-D1 cell growth in a cell viability assay.
# HOP-62 = format: functional, cell-based
# Description: SANGER: Inhibition of human HOP-62 cell growth in a cell viability assay.
compound,measurement,setting,value
C/C=C(/C)C(=O)O[C@H]1C(C)=C2[C@H]([C@@H]1OC(=O)CCCCCCC)[C@@](C)(OC(C)=O)C[C@H](OC(=O)CCC)[C@@]1(O)[C@H]2OC(=O)[C@@]1(C)O [THAPSIGARGIN],IC50,EOL1,24.2 nM
same,IC50,MN-60,69.2 nM
same,IC50,OS-RC-2,24.3 nM
same,IC50,SK-N-DZ,43.2 nM
same,IC50,TK-10,22.7 nM
same,IC50,NOMO-1,> 512 nM
same,IC50,A3-KAW,1.98 nM
same,IC50,SK-N-FI,88.2 nM
same,IC50,NCI-H209,18.1 nM
same,IC50,MS-1,29.5 nM
same,IC50,KARPAS-45,8.06 nM
same,IC50,DMS-79,> 512 nM
same,IC50,KURAMOCHI,5.44 nM
same,IC50,ML-2,53.9 nM
same,IC50,DMS-114,> 512 nM
same,IC50,SF-539,1.94 nM
same,IC50,D283 Med,< 2 nM
same,IC50,HuTu80,0.657 nM
same,IC50,KALS-1,0.516 nM
same,IC50,ES5,> 512 nM
same,IC50,MSTO-211H,293 nM
same,IC50,GOTO,50.5 nM
same,IC50,LB1047-RCC,7.05 nM
same,IC50,KNS-42,16.9 nM
same,IC50,NCI-H1648,1.44 nM
same,IC50,D-502MG,343 nM
same,IC50,HCC1187,505 nM
same,IC50,ONS-76,9.98 nM
same,IC50,SK-MEL-1,> 512 nM
same,IC50,CTB-1,17 nM
same,IC50,DU-4475,5.97 nM
same,IC50,SK-NEP-1,15.9 nM
same,IC50,C8166,188 nM
same,IC50,JVM-2,> 512 nM
same,IC50,Calu-6,4.79 nM
same,IC50,ES3,4.1 nM
same,IC50,SCC-15,1.12 nM
same,IC50,CTV-1,5.2 nM
same,IC50,GCIY,53.5 nM
same,IC50,JVM-3,33.6 nM
same,IC50,HCE-T,36.3 nM
same,IC50,KG-1,67.4 nM
same,IC50,OMC-1,83 nM
same,IC50,L-428,> 512 nM
same,IC50,KGN,< 2 nM
same,IC50,LS-1034,29 nM
same,IC50,KS-1,3.61 nM
same,IC50,KLE,70.2 nM
same,IC50,TE-11,9.14 nM
same,IC50,SNB-75,32.6 nM
same,IC50,KP-N-YS,8.06 nM
same,IC50,NCI-H1155,285 nM
same,IC50,HCE-4,4.25 nM
same,IC50,A388,1.39 nM
same,IC50,RPMI-8866,> 512 nM
same,IC50,KINGS-1,7.59 nM
same,IC50,SW 962,6.85 nM
same,IC50,NCI-H1355,5.48 nM
same,IC50,SJSA-1,3 nM
same,IC50,EW-24,149 nM
same,IC50,NCI-H510A,36.1 nM
same,IC50,MHH-PREB-1,12.6 nM
same,IC50,EC-GI-10,355 nM
same,IC50,CAS-1,118 nM
same,IC50,NTERA-2-cl-D1,< 2 nM
same,IC50,HOP-62,0.601 nM
C[C@]1(c2nc3c(C(N)=O)cccc3[nH]2)CCCN1 [VELIPARIB],IC50,EOL1,1080 nM
same,IC50,MN-60,> 5000 nM
same,IC50,OS-RC-2,> 5000 nM
same,IC50,SK-N-DZ,> 5000 nM
same,IC50,TK-10,> 5000 nM
same,IC50,NOMO-1,> 5000 nM
same,IC50,A3-KAW,> 5000 nM
same,IC50,SK-N-FI,> 5000 nM
same,IC50,NCI-H209,> 5000 nM
same,IC50,MS-1,> 5000 nM
same,IC50,KARPAS-45,> 5000 nM
same,IC50,DMS-79,> 5000 nM
same,IC50,KURAMOCHI,> 5000 nM
same,IC50,ML-2,> 5000 nM
same,IC50,DMS-114,> 5000 nM
same,IC50,SF-539,> 5000 nM
same,IC50,D283 Med,> 5000 nM
same,IC50,HuTu80,> 5000 nM
same,IC50,KALS-1,> 5000 nM
same,IC50,ES5,> 5000 nM
same,IC50,MSTO-211H,> 5000 nM
same,IC50,GOTO,> 5000 nM
same,IC50,LB1047-RCC,> 5000 nM
same,IC50,KNS-42,> 5000 nM
same,IC50,NCI-H1648,> 5000 nM
same,IC50,D-502MG,> 5000 nM
same,IC50,HCC1187,> 5000 nM
same,IC50,ONS-76,> 5000 nM
same,IC50,SK-MEL-1,> 5000 nM
same,IC50,CTB-1,> 5000 nM
same,IC50,DU-4475,> 5000 nM
same,IC50,SK-NEP-1,> 5000 nM
same,IC50,C8166,> 5000 nM
same,IC50,JVM-2,> 5000 nM
same,IC50,Calu-6,> 5000 nM
same,IC50,ES3,> 5000 nM
same,IC50,SCC-15,> 5000 nM
same,IC50,CTV-1,> 5000 nM
same,IC50,GCIY,> 5000 nM
same,IC50,JVM-3,> 5000 nM
same,IC50,HCE-T,> 5000 nM
same,IC50,KG-1,> 5000 nM
same,IC50,OMC-1,> 5000 nM
same,IC50,L-428,> 5000 nM
same,IC50,KGN,> 5000 nM
same,IC50,LS-1034,> 5000 nM
same,IC50,KS-1,> 5000 nM
same,IC50,KLE,> 5000 nM
same,IC50,TE-11,> 5000 nM
same,IC50,SNB-75,> 5000 nM
same,IC50,KP-N-YS,> 5000 nM
same,IC50,NCI-H1155,> 5000 nM
same,IC50,HCE-4,> 5000 nM
same,IC50,A388,> 5000 nM
same,IC50,RPMI-8866,> 5000 nM
same,IC50,KINGS-1,> 5000 nM
same,IC50,SW 962,> 5000 nM
same,IC50,NCI-H1355,> 5000 nM
same,IC50,SJSA-1,> 5000 nM
same,IC50,EW-24,> 5000 nM
same,IC50,NCI-H510A,> 5000 nM
same,IC50,MHH-PREB-1,> 5000 nM
same,IC50,EC-GI-10,> 5000 nM
same,IC50,CAS-1,> 5000 nM
same,IC50,NTERA-2-cl-D1,> 5000 nM
same,IC50,HOP-62,> 5000 nM
